Reference: US20210047278A1, “E3 UBIQUITIN LIGASE AGONISTS, PHARMACEUTICAL COMPOSITIONS INCLUDING THE E3 UBIQUITIN LIGASE AGONISTS, RELATED METHODS OF USE” (FRED HUTCHINSON CANCER RESEARCH CENTER, priority 2018, published 2021)
Where two headings read alike, the source gives them in different places.

Tests used:
Assay type in all cases: binding
FBW7^ARG+pCycE = target: T1, FBW7^ARG+pCycE (Homo sapiens, UniProt Q969H0, R505L); experiment: FBW7^ARG-cyclin E agonist ALPHAscreen (primary PRUN, confirmation CRUN1, dose-response DRUN); conditions: for EC50 / Emax: DRUN dose-response; for Emax: relative to WT-FBW7+pCycE, read-out: FBW7 ACT Averaged Max % Response
T1 construct: GST (TEV site and flexible linker) (N, cleaved yes); made in house; host or cells: SF9 insect cells (baculovirus)
T1 sequence (Q969H0 64-707 R505L): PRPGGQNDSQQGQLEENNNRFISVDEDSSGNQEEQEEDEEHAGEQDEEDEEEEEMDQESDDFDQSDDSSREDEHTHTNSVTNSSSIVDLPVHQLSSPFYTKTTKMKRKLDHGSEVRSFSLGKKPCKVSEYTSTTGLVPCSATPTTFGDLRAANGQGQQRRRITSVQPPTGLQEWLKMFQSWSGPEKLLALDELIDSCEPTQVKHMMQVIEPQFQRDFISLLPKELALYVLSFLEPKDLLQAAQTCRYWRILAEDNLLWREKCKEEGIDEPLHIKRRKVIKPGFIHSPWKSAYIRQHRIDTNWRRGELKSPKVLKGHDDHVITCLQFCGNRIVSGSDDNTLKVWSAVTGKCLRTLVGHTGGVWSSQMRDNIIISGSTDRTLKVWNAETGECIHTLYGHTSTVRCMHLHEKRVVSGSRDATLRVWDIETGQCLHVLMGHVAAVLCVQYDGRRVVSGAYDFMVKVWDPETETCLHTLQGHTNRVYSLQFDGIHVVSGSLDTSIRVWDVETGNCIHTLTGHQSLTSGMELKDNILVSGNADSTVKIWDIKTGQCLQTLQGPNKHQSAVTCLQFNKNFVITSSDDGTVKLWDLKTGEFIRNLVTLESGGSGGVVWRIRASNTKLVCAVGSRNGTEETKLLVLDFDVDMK
T1 sequence (P63208 2-163 partner): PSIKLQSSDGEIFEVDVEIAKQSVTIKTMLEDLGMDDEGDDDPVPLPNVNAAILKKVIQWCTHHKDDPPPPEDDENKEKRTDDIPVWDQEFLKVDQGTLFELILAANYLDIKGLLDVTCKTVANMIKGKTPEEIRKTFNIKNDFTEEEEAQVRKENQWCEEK
Excerpt: FBW7^ARG refers to a class of loss-of-function mutations of the of FBW7 ubiquitin ligase that target a key phosphate-binding arginine residue in the FBW7 substrate-binding domain. These mutations are commonly found in human cancers and promote tumorigenesis by impairing the interactions between FBW7 and its substrates, such as cyclin E and Myc. Described herein is a high throughput screen (HTS) to identify agonists, such as small molecules, that augment FBW7^ARG-substrate binding. In an embodiment, the HTS is based on the Amplified Luminescent Proximity Homogenous Assay (ALPHAscreen) because it detects protein-protein interactions with a large dynamic range. ALPHAscreen is a bead-based proximity assay wherein donor beads contain a photosensitizer, phthalocyanine, and acceptor beads contain thioxene, anthracene and rubrenein in sufficient quantities to generate a chemiluminescence/fluorescence reaction (FIG. 4A). Upon excitation with excitation illumination, such as light having a wavelength of 680 nm, of the donor beads, phthalocyanine converts ambient oxygen to singlet oxygen, which can diffuse approximately 200 nm within its 4-microsecond half-life. If an acceptor bead is in close proximity to an excited donor bead, singlet oxygen transfers its energy to the acceptor, resulting in emitted light at a broad bandwidth of −520-620 nm. The HTS-compatible FBW7/cyclin E ALPHAscreen assay described herein uses streptavidin coupled donor beads and Ni-chelate acceptor beads. In this assay, biotinylated cyclin E phosphopeptide and the His-tagged FBW7 mutant protein have high affinity for the donor and acceptor beads, respectively (FIG. 4B). A small molecule that is able to bridge the binding sites of the peptide and the mutant protein (or induce a conformational change that increases affinity of the protein for the peptide) will bring the donor and acceptor beads in close proximity to each other, resulting in an ALPHA signal. As designed, this assay format is a very sensitive, non-radioactive, homogenous “mix-and-read” format that is HT compatible in 384 and 1536 well formats.
In the 384-well screening assay, 10 uL of acceptor beads with 25 nM of the FBW7^ARG (RLFBW7) are dispensed to test wells; acceptor beads with 25 nM of the wt-FBW7 protein (WTFBW7) are dispensed to control wells. Test compounds are then added by pintool transfer and the mixture is incubated for 30 minutes. An additional 10 uL of donor beads with 25 nM cyclin E phosphopeptide is then added to all wells and the plate is incubated for 4 hours before the ALPHA signal is measured.
In preparation for large-scale screening, the assay was miniaturized to a 1536-well format. The miniaturized screen performed outstandingly in all respects. The screen was enhanced with respect to several parameters and assayed its performance using mutant FBW7 and wt-FBW7, as well as non-specific assay agonists. […] For example, the following Z′-scores/FBW7 concentrations were obtained: 6.25 nM/Z′=0.62, 12.5 nm/Z′=0.85, 25.0 nM/Z′=0.84.
1. Add 2.5 uL of RLFBW7/cycE˜P/Ni beads: Final [25 nM/25 nM/10 ug/ml].
2. Add 2.5 uL of WTFBW7/cycE˜P/Ni beads: Final [25 nM/25 nM/10 ug/ml].
4. Add 2.5 uL of SA beads to all wells Final [10 ug/ml],
5. Add 30 nL of compounds,
6. Read ALPHAscreen on Envision
The large-scale FBW7 agonist ALPHAscreen was completed using FBW7^ARG and a phosphorylated cyclin E (pCycE) degron peptide. Wt-FBW7+pCycE-peptide was the “high control”, and Wt-FBW7+unphosph. CycE peptide was the “low control”. The screen was performed on the 645,000-compound Scripps Diversity Library using 1536-well format and drug concentrations of 26.1 μM. An algorithm aided hit identification based on the average percent activation for all compounds and their standard deviation.
A confirmation assay of all 853 compounds in triplicate using a single concentration (26.1 μM). […]

FBW7^ARG (RLFBW7) alone = target: T2, FBW7^ARG (RLFBW7) alone (Homo sapiens, UniProt Q969H0, R505L); experiment: Counterscreen 1 ALPHAscreen with FBW7^ARG alone (CSRUN1/DCSRUN1); conditions: dose-response counterscreen; for Emax: read-out: RLFBW7 ACT DCSRUN1 Averaged Max % Response
T2 construct: GST (TEV site and flexible linker) (N, cleaved yes); made in house; host or cells: SF9 insect cells (baculovirus)
T2 sequence (Q969H0 64-707 R505L): as the sequence (Q969H0 64-707 R505L) above
T2 sequence (P63208 2-163 partner): as the sequence (P63208 2-163 partner) above
Method: (§1) Studies in 384-well format were performed using the ENVISION system. Reagent concentrations (see FIG. 6A), order of addition, pH (see FIG. 6B), and reducing agent were altered with the goal of enhancing the dynamic range between wt-FBW7 (the positive control) and FBW7^ARG (FIG. 6 and not shown). Wt-FBW7 produced a signal 100× greater with phosphorylated cyclin E degron peptide compared with unphosphorylated, which represents the assay's maximum range (FIG. 6C). […] This assay thus detects the residual affinity of the FBW7^ARG-substrate interaction, which, as predicted, is stronger than wt-FBW7 protein with unphosphorylated cyclin E peptide. Concurrent with this primary assay, counter ALPHAscreens were developed which omitted either FBW7 or peptide (to eliminate hits that are general ALPHAscreen agonists), or used an irrelevant phosphopeptide (to eliminate compounds that simply augment binding to phosphopeptides). […]
(§2) The 77 hits were subjected to a dose-response assay in which each compound was tested in triplicate in a 10 point 3-fold dilutional series, to a maximum concentration of approximately 87 μM. Three screens were performed, using FBW7^ARG+pCycE (DRUN), FBW7^ARG (DCSRUN1), or pCycE alone (DCSRUN2). See TABLES 2, 3, and 4, respectively, and FIG. 10A. All of the assays performed extremely well, and threshold of 10% activation (relative to WT-FBW7+pCycE) was set as positive. […] Many hits fell into shared structure cluster ID groups, reinforcing the idea that they function as specific agonists (see below and TABLE 5).

pCycE alone = experiment: Counterscreen 2 ALPHAscreen with cyclin E phosphopeptide alone (CSRUN2/DCSRUN2); conditions: for CyCEP ACT DCSRUN2 Averaged Max % Response: activation relative to WT-FBW7+pCycE, averaged maximum; for EC50: dose-response, triplicate, 10 point 3-fold dilutional series, read-out: CyCEP ACT DCSRUN2 Final EC50
Method: as §1, §2

[1] = raw curve fit, read-out: FBW7 ACT EC50 Curve Fit Raw, Molar
[2] = triplicate, 10 point 3-fold dilution, max approx. 87 μM, read-out: FBW7 ACT Final EC50, Molar
[3] = confirmation assay, triplicate, single concentration 26.1 μM, read-out: FBW7 ACT CRUN1 Avg % Response and Stdev
[4] = primary screen, 1536-well, 26.1 μM, FBW7^ARG + pCycE degron peptide, high control wt-FBW7+pCycE, read-out: FBW7 ACT PRUN % Response
[5] = raw curve fit, read-out: RLFBW7 ACT DCSRUN1 EC50 Curve Fit Raw
[6] = read-out: RLFBW7 ACT DCSRUN1 Final EC50

Row | SMILES | EC50 (FBW7^ARG+pCycE; [1]) [µM] | Emax (FBW7^ARG+pCycE) [%] | EC50 (FBW7^ARG+pCycE; [2]) [µM] | activation at 26.1 µM (FBW7^ARG+pCycE; [3]) [%] | activation at 26.1 µM (FBW7^ARG+pCycE; [4]) [%] | EC50 (FBW7^ARG (RLFBW7) alone; [5]) [µM] | Emax (FBW7^ARG (RLFBW7) alone) [%] | EC50 (FBW7^ARG (RLFBW7) alone; [6]) [µM] | CyCEP ACT DCSRUN2 Averaged Max % Response (pCycE alone) [%] | EC50 (pCycE alone) [µM]
1 | CN(C)CC[S+]([O-])c1cc(-c2cn[nH]c2)ccc1NC(=O)[C@@H]1Cc2cc(F)ccc2CN1.O=C(O)C(F)(F)F (stereo partly shown) [SR-00000005398-1] | 9.2 | 12.9 | > 65.3 | 2.28 ± 0.37 | 1.91 | 0.0925 | 0.77 | > 65.3 | 0.21 | > 65.3
2 | O=C(Cc1ccc(Br)cc1)N1CCC(c2nc(O)c3cnccc3n2)C1.O=C(O)C(F)(F)F (stereo not shown) [SR-00000005455-1] | 30.2 | 24.7 | > 65.3 | 4.65 ± 0.38 | 2.32 | 0.0129 | 0.43 | > 65.3 | 0.31 | > 65.3
3 | CN(C)CCN(C)c1nc([C@H](N)Cc2cccc(F)c2)cc2ccc(-c3cn[nH]c3)cc12.O=C(O)C(F)(F)F [SR-00000006284-1] | 7.2 | 15.4 | > 16.3 | 7.7 ± 0.45 | 2.73 | 2.2 | 0.27 | > 16.3 | 0.41 | > 16.3

More lines, main results first:

Row | EC50 (FBW7^ARG+pCycE; [1]) [µM] | Emax (FBW7^ARG+pCycE) [%] | EC50 (FBW7^ARG+pCycE; [2]) [µM] | activation at 26.1 µM (FBW7^ARG+pCycE; [3]) [%] | activation at 26.1 µM (FBW7^ARG+pCycE; [4]) [%] | EC50 (FBW7^ARG (RLFBW7) alone; [5]) [µM] | Emax (FBW7^ARG (RLFBW7) alone) [%] | EC50 (FBW7^ARG (RLFBW7) alone; [6]) [µM] | SMILES | CyCEP ACT DCSRUN2 Averaged Max % Response (pCycE alone) [%] | EC50 (pCycE alone) [µM]
4 | 2.6 | 12.1 | > 65.3 | 4.15 ± 0.5 | 2.76 | 83.6 | 2.08 | > 65.3 | Cc1ncn(-c2ccc(Nc3cc(-c4nocc4-c4ccccn4)ccn3)cc2)n1.O=C(O)C(F)(F)F [SR-00000006872-1] | 0.34 | > 65.3
5 | 4 | 8.53 | > 65.3 | 4.91 ± 0.39 | 5.73 | 6.6 | 29.7 | > 65.3 | Cc1ccc(-c2cccc3cnc(Nc4ccc(-n5cnc(-c6ccccn6)n5)cc4)nc23)cn1.O=C(O)C(F)(F)F [SR-00000008492-1] | 0.22 | > 65.3
6 | 15.3 | 18.4 | > 64.6 | 2.46 ± 0.31 | 1.85 | 33.3 | 0.39 | > 64.6 | CC(=O)NCC(c1cccs1)S(=O)(=O)c1ccc(C)cc1 (stereo not shown) [SR-01000023077-1] | 0.18 | > 64.6
7 | 7.6 | 14.7 | > 66.4 | 2.18 ± 0.61 | 3.19 | 0.0177 | 0.24 | > 66.4 | CCS(=O)(=O)NCC(c1cccs1)S(=O)(=O)c1ccc(C)cc1 (stereo not shown) [SR-01000023127-1] | 0.21 | > 66.4
